Source: patent US11370847B2, “Single domain antibodies directed against intracellular antigens” (Singh Biotechnology, LLC, priority 2014, dated 2022)
Several values for one entry are separate records, joined by “and”; a condition that tells them apart may be missing. Equal values may be shown once. Numbered stars: 1 amine (or outer) side, 2 acyl side, 3 side chain; on linkers, the order of the positions; unused ones are H or OH. Bridge positions count the residues as written; N and C are the ends. Square brackets hold non-standard residues; d marks the D form. Peptide text beside a SMILES is read from it. I, II: the chains in the order shown. Actinocin(9to1) = Cc1c2oc3c(C)ccc(C(=O)[*:1])c3nc-2c(C(=O)[*:2])c(N)c1=O; NMeV = CN[C@H](C(=O)O)C(C)C; Sar = CNCC(=O)O

What was measured:
TNF-α = target: T1, TNF-α (Homo sapiens, UniProt P01375); assay: Inhibition of TNF-α cytotoxicity in L929 fibroblast cells (MTS); assay type: cell-based, mouse; details: Assay 2, Actinomycin D only (no TNFα), sample replicates
T1 construct: purchased Sigma-Aldrich

SJSA-1 cells = assay: MTT proliferation assay, SJSA-1; assay type: cell-based, human
SJSA-1 xenograft [1] = details: mouse, in vivo
SJSA-1 xenograft [2] = assay: SJSA-1 Bone Osteosarcoma subcutaneous xenograft model
[3] = SBT-100 5.0 mg/kg BID 14 days IP, Doxorubicin 7.0 mg/kg days 1, 8 and 14 IP
[4] = study day 9 post implant, IP, SBT-100 5.0 mg/kg BIDx14 and/or Doxorubicin 7.0 mg/kg days 1, 8, 14
[5] = study day 13 post implant, IP, SBT-100 5.0 mg/kg BIDx14 and/or Doxorubicin 7.0 mg/kg days 1, 8, 14
[6] = study day 16 post implant, IP, SBT-100 5.0 mg/kg BIDx14 and/or Doxorubicin 7.0 mg/kg days 1, 8, 14
[7] = study day 20 post implant, IP, SBT-100 5.0 mg/kg BIDx14 and/or Doxorubicin 7.0 mg/kg days 1, 8, 14
[8] = study day 21 post implant, IP, SBT-100 5.0 mg/kg BIDx14 and/or Doxorubicin 7.0 mg/kg days 1, 8, 14
[9] = study day 23 post implant, IP, SBT-100 5.0 mg/kg BIDx14 and/or Doxorubicin 7.0 mg/kg days 1, 8, 14
[10] = study day 27 post implant, IP, SBT-100 5.0 mg/kg BIDx14 and/or Doxorubicin 7.0 mg/kg days 1, 8, 14

T1 sequence (P01375 77-233 limits assumed): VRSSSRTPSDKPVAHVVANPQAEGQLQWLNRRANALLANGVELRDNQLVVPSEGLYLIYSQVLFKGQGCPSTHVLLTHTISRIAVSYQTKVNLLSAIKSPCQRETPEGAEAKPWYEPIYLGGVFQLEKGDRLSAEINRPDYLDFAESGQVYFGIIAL

With `Cc1c2oc3c(C)ccc(C(=O)N[C@@H]4C(=O)N[C@H](C(C)C)C(=O)N5CCC[C@H]5C(=O)N(C)CC(=O)N(C)[C@@H](C(C)C)C(=O)O[C@@H]4C)c3nc-2c(C(=O)N[C@@H]2C(=O)N[C@H](C(C)C)C(=O)N3CCC[C@H]3C(=O)N(C)CC(=O)N(C)[C@@H](C(C)C)C(=O)O[C@@H]2C)c(N)c1=O` [Actinomycin D] (I: T[dV]P[Sar][NMeV] / II: T[dV]P[Sar][NMeV]; ester I:1-I:C, II:1-II:C; linker I:N-II:N via Actinocin(9to1)) the “% Toxicity” value (TNF-α) was 0%.

`COc1cccc2c1C(=O)c1c(O)c3c(c(O)c1C2=O)C[C@@](O)(C(=O)CO)C[C@@H]3O[C@H]1C[C@H](N)[C@H](O)[C@H](C)O1` [Doxorubicin, reference compound] was tested, and the “inhibition of SJSA-1 cells” value (SJSA-1 cells; 72 hours, SBT-100 at 50 and 100 μg/ml, Doxorubicin at all dose levels tested) was “significant dose-dependent inhibition”, the inhibition at 0.0313 µM (SJSA-1 cells; Homo sapiens, SJSA-1, 72 h) was 28% and the inhibition at 0.0625 µM (SJSA-1 cells; Homo sapiens, SJSA-1, 72 h) was 29%. The inhibition at 0.313 µM (SJSA-1 cells; Homo sapiens, SJSA-1, 72 h) was 31%, the inhibition at 0.5 µM (SJSA-1 cells; Homo sapiens, SJSA-1, 72 h) was 36% and the inhibition at 0.625 µM (SJSA-1 cells; Homo sapiens, SJSA-1, 72 h) was 29%. For the same compound, the inhibition at 1 µM (SJSA-1 cells; Homo sapiens, SJSA-1, 72 h) was 49%, the inhibition at 5 µM (SJSA-1 cells; Homo sapiens, SJSA-1, 72 h) was 52% and the inhibition at 10 µM (SJSA-1 cells; Homo sapiens, SJSA-1, 72 h) was 45%. The “Mean Abs (±SD)” value (SJSA-1 cells; Table 72 (experiment 5a), Doxorubicin 0.0313 μM alone, 72 hours) was 0.281 ± 0.031, the “Mean Abs (±SD)” value (SJSA-1 cells; Table 72 (experiment 5a), Doxorubicin 0.0625 μM alone, 72 hours) was 0.277 ± 0.035 and the “Mean Abs (±SD)” value (SJSA-1 cells; Table 72 (experiment 5a), Doxorubicin 0.5 μM alone, 72 hours) was 0.248 ± 0.038. For the same compound, the “Mean Abs (±SD)” value (SJSA-1 cells; Table 72 (experiment 5a), Doxorubicin 1 μM alone, 72 hours) was 0.197 ± 0.012, the “Mean Abs (±SD)” value (SJSA-1 cells; Table 73 (Experiment 2, 5b), Doxorubicin 0.313 μM alone, 72 hours) was 0.519 ± 0.004 and the “Mean Abs (±SD)” value (SJSA-1 cells; Table 73 (Experiment 2, 5b), Doxorubicin 0.625 μM alone, 72 hours) was 0.530 ± 0.024. For the same compound, the “Mean Abs (±SD)” value (SJSA-1 cells; Table 73 (Experiment 2, 5b), Doxorubicin 5.00 μM alone, 72 hours) was 0.358 ± 0.003, the “Mean Abs (±SD)” value (SJSA-1 cells; Table 73 (Experiment 2, 5b), Doxorubicin 10.0 μM alone, 72 hours) was 0.414 ± 0.007 and the “number surviving at the end of the study” value (SJSA-1 xenograft [1]; Hsd: Athymic Nude-Fox1nu, 14 days) was 2. For the same compound, the “Are the survival curves sig different?” value (SJSA-1 xenograft [1]) was “Yes”, the “% T/C” value (SJSA-1 xenograft [2]; [3]) was 17.91% and the “mean tumor growth inhibition at the end of the study” value (SJSA-1 xenograft [2]; [3]) was 84.71%. For the same compound, the “mean tumor size (±S.E.) at termination” value (SJSA-1 xenograft [2]; [3]) was 215.84±52.32, the “mean tumor size (±SE) at the last day of dosing” value (SJSA-1 xenograft [2]; [3]) was 118.18±11.13 and the tumor doubling time (SJSA-1 xenograft [2]; control 8.22) was 13.32. The “% Inh Mean” value (SJSA-1 xenograft [2]; [4]) was 58.36%, the “% Inh Med” value (SJSA-1 xenograft [2]; [4]) was 32.94% and the “Mean Abs (tumor measurement)” value (SJSA-1 xenograft [2]; [4]) was 16.52 mm^3. For the same compound, the “Tumor Measurements, single animals” value (SJSA-1 xenograft [2]; [4]) was 23.19 mm^3 and 14.32 mm^3 and 16.69 mm^3 and 0.00 mm^3 (2×) and 46.20 mm^3, the “% Inh Mean” value (SJSA-1 xenograft [2]; [5]) was 3.16% and the “% Inh Med” value (SJSA-1 xenograft [2]; [5]) was −23.18%. The “% T/C” value (SJSA-1 xenograft [2]; [5]) was 107.14%, the “Mean Abs (tumor measurement)” value (SJSA-1 xenograft [2]; [5]) was 76.72 mm^3 and the “Median Abs (tumor measurement)” value (SJSA-1 xenograft [2]; [5]) was 72.93 mm^3. The “Tumor Measurements, single animals” value (SJSA-1 xenograft [2]; [5]) was 48.43 mm^3 and 20.77 mm^3 and 132.27 mm^3 and 104.16 mm^3 and 25.81 mm^3 and 132.66 mm^3 and 72.93 mm^3, the “% Inh Mean” value (SJSA-1 xenograft [2]; [6]) was 55.02% and the “% Inh Med” value (SJSA-1 xenograft [2]; [6]) was 55.11%. The “% T/C” value (SJSA-1 xenograft [2]; [6]) was 51.96%, the “Mean Abs (tumor measurement)” value (SJSA-1 xenograft [2]; [6]) was 78.09 mm^3 and the “Median Abs (tumor measurement)” value (SJSA-1 xenograft [2]; [6]) was 73.50 mm^3. The “Tumor Measurements, single animals” value (SJSA-1 xenograft [2]; [6]) was 102.31 mm^3 and 37.33 mm^3 and 105.65 mm^3 and 118.75 mm^3 and 57.55 mm^3 and 51.55 mm^3 and 73.50 mm^3, the “% Inh Mean” value (SJSA-1 xenograft [2]; [7]) was 74.31% and the “% Inh Med” value (SJSA-1 xenograft [2]; [7]) was 71.58%. The “% T/C” value (SJSA-1 xenograft [2]; [7]) was 30.35%, the “Mean Abs (tumor measurement)” value (SJSA-1 xenograft [2]; [7]) was 79.33 mm^3 and the “Median Abs (tumor measurement)” value (SJSA-1 xenograft [2]; [7]) was 72.16 mm^3. The “Tumor Measurements, single animals” value (SJSA-1 xenograft [2]; [7]) was 61.44 mm^3 and 68.71 mm^3 and 114.42 mm^3 and 93.72 mm^3 and 75.00 mm^3 and 69.85 mm^3 and 72.16 mm^3, the “% Inh Mean” value (SJSA-1 xenograft [2]; [8]) was 70.41% and the “% Inh Med” value (SJSA-1 xenograft [2]; [8]) was 61.77%. For the same compound, the “% T/C” value (SJSA-1 xenograft [2]; [8]) was 36.16%, the “Mean Abs (tumor measurement)” value (SJSA-1 xenograft [2]; [8]) was 118.18 mm^3 and the “Tumor Measurements, single animals” value (SJSA-1 xenograft [2]; [8]) was 85.16 mm^3 and 115.50 mm^3 and 133.21 mm^3 and 119.94 mm^3 and 160.89 mm^3 and 94.40 mm^3. For the same compound, the “% Inh Mean” value (SJSA-1 xenograft [2]; [9]) was 72.79%, the “% Inh Med” value (SJSA-1 xenograft [2]; [9]) was 71.86% and the “% T/C” value (SJSA-1 xenograft [2]; [9]) was 30.43%. For the same compound, the “Mean Abs (tumor measurement)” value (SJSA-1 xenograft [2]; [9]) was 141.94 mm^3, the “Median Abs (tumor measurement)” value (SJSA-1 xenograft [2]; [9]) was 129.81 mm^3 and the “Tumor Measurements, single animals” value (SJSA-1 xenograft [2]; [9]) was 105.84 mm^3 and 142.33 mm^3 and 217.29 mm^3 and 151.94 mm^3 and 116.95 mm^3 and 117.30 mm^3. For the same compound, the “% Inh Mean” value (SJSA-1 xenograft [2]; [10]) was 84.71%, the “% Inh Med” value (SJSA-1 xenograft [2]; [10]) was 81.05% and the “% T/C” value (SJSA-1 xenograft [2]; [10]) was 17.91%. For the same compound, the “Mean Abs (tumor measurement)” value (SJSA-1 xenograft [2]; [10]) was 215.84 mm^3, the “Median Abs (tumor measurement)” value (SJSA-1 xenograft [2]; [10]) was 215.84 mm^3 and the “Tumor Measurements, single animals” value (SJSA-1 xenograft [2]; [10]) was 163.53 mm^3 and 268.16 mm^3.
